MIC data for five compounds are collected here from DBAASP.

Values after ≈ are worked out from the molar mass of the structure shown. Values joined by “and” are separate entries in the source; they are usually repeats but may differ in a detail not shown here. Identical values can stand only once.

Some test systems named below: Vibrio alginolyticus; Helicobacter pylori; Vibrio vulnificus 204; Acinetobacter baumannii.
Common to all, as to experiment: ≥ marks a high value that may be exact or a test limit, other limits are often not marked, values filed in µg/mL are converted to µM
For assay [1], the system named is Streptococcus agalactiae BCRC 10787.
Assay [2] has as its system Pseudomonas aeruginosa ATCC 19660.
The subject of assay [3] is Helicobacter pylori ATCC 43504.
For assay [4], the system named is Helicobacter pylori ATCC 700392.
Assay [5] deals with Aeromonas hydrophila BCRC 13018.
Assay [6] deals with Streptococcus agalactiae 819.
In assay [7] the test system is Helicobacter pylori ATCC 43629.
The test system of assay [8] is Enterococcus faecalis BCRC 10066.
For assay [9], the system named is Staphylococcus aureus ATCC 6538.
Assay [10] relates to Bacillus subtilis ATCC 9372.
The subject of assay [11] is Escherichia coli ATCC 8739.
In assay [12] the test system is Pseudomonas aeruginosa ATCC 9027.
The subject of assay [13] is Proteus vulgaris NCTC 4635.
Assay [14] deals with Candida albicans ATCC 90028.
Assay [15] relates to Escherichia coli ATCC 25726.
For assay [16], the system named is Acinetobacter baumannii NM75.
Assay [17] concerns Staphylococcus aureus ATCC 25923.
Assay [18] relates to Acinetobacter baumannii NM8.
Assay [19] relates to Staphylococcus aureus ATCC 700699.
Assay [20] relates to Staphylococcus aureus ATCC 33591.
The test system of assay [21] is Klebsiella pneumoniae KK3 9904.
The subject of assay [22] is Aggregatibacter actinomycetemcomitans ATCC 29522.
Assay [23] deals with Staphylococcus aureus ATCC 29213.
The subject of assay [24] is Proteus mirabilis ATCC 25933.
Assay [25] relates to Pseudomonas aeruginosa ATCC 27853.
The test system of assay [26] is Enterobacter cloacae NHTCC 53001.
Assay [27] concerns Batrachochytrium dendrobatidis.
Assay [28] has as its system Klebsiella pneumoniae ATCC 700603.
The subject of assay [29] is Stenotrophomonas maltophilia.
Assay [30] concerns Staphylococcus epidermidis RP62A/1.
For assay [31], the system named is Staphylococcus epidermidis RP62A.

As for `CC(C)C[C@H](NC(=O)[C@@H](NC(=O)[C@H](CO)NC(=O)[C@H](CC(=O)O)NC(=O)[C@H](Cc1c[nH]c2ccccc12)NC(=O)[C@H](CC(=O)O)NC(=O)[C@@H](N)Cc1ccccc1)C(C)C)C(=O)N[C@@H](CCCCN)C(=O)NCC(=O)N[C@H](C(=O)N[C@@H](CCC(=O)O)C(=O)NCC(=O)N[C@@H](Cc1ccccc1)C(=O)N[C@H](C(=O)N[C@@H](CCCN=C(N)N)C(=O)NCC(=O)N[C@@H](Cc1ccc(O)cc1)C(=O)N[C@@H](Cc1ccccc1)C(N)=O)C(C)C)C(C)C` [FDWDSVLKGVEGFVRGYF], the MIC amounted to 11.1 µM (≈ 23.6 µg/mL) in [1]; 11.1 µM (≈ 23.6 µg/mL) in assay [2]; 5.66 µM (≈ 12 µg/mL) in [3]; 11.1 µM (≈ 23.6 µg/mL) against Vibrio alginolyticus; 5.66 µM (≈ 12 µg/mL) in [4]; 5.66 µM (≈ 12 µg/mL) against Helicobacter pylori. The MIC in assay [5] came out at 11.1 µM (≈ 23.6 µg/mL); in assay [6], 11.1 µM (≈ 23.6 µg/mL); in assay [7], 5.66 µM (≈ 12 µg/mL); in assay [8] it was 11.1 µM (≈ 23.6 µg/mL); in the assay with Vibrio vulnificus 204, 11.1 µM (≈ 23.6 µg/mL).
Consider `CC[C@H](C)[C@H](NC(=O)[C@@H](NC(=O)[C@@H](NC(=O)[C@H](CC(=O)O)NC(=O)[C@H](Cc1ccccc1)NC(=O)[C@H](CC(C)C)NC(=O)CN)C(C)C)C(C)C)C(=O)NCC(=O)NCC(=O)N[C@@H](CC(C)C)C(=O)O` [GLFDVVIGGL], for which the MIC in assay [9] is > 1040 µM; in assay [10], ≥ 1040 µM; in [11] it was ≥ 1040 µM; in assay [12], > 1040 µM; in assay [13] it was ≥ 1040 µM.
With `CC[C@H](C)[C@H](NC(=O)CNC(=O)[C@H](CCCCN)NC(=O)[C@@H](NC(=O)[C@H](CC(C)C)NC(=O)[C@H](CO)NC(=O)CNC(=O)[C@H](CC(C)C)NC(=O)CNC(=O)[C@H](C)NC(=O)[C@H](CCCCN)NC(=O)[C@H](Cc1ccccc1)NC(=O)[C@@H](NC(=O)[C@H](CCCCN)NC(=O)[C@H](CCCCN)NC(=O)[C@H](CC(C)C)NC(=O)CN)[C@@H](C)CC)C(C)C)C(=O)N[C@@H](CCCCN)C(=O)N[C@@H](C)C(=O)N[C@@H](Cc1cnc[nH]1)C(=O)N[C@H](C(=O)N[C@@H](C)C(=O)N[C@@H](CO)C(N)=O)C(C)C` [GLKKIFKAGLGSLVKGIKAHVAS], the MIC is 20 µM (≈ 46.4 µg/mL) in assay [14]; 10 µM (≈ 23.2 µg/mL) in assay [15]; 2.5 µM (≈ 5.8 µg/mL) in assay [16]; > 250 µM in [17]; 5 µM (≈ 11.6 µg/mL) in [18].
In the case of `CC[C@H](C)[C@H](NC(=O)[C@H](CC(=O)O)NC(=O)[C@H](CCCCN)NC(=O)[C@H](C)NC(=O)[C@H](C)NC(=O)CNC(=O)[C@H](CCCCN)NC(=O)[C@H](CC(C)C)NC(=O)[C@@H](NC(=O)[C@H](CC(=O)O)NC(=O)[C@@H](NC(=O)[C@@H](NC(=O)CN)C(C)C)C(C)C)[C@@H](C)CC)C(=O)N[C@@H](C)C(=O)NCC(=O)N[C@@H](Cc1cnc[nH]1)C(=O)N[C@@H](CC(C)C)C(=O)N[C@@H](C)C(=O)N[C@@H](CO)C(=O)N[C@@H](CCCCN)C(=O)N[C@H](C(=O)N[C@@H](CCSC)C(=O)N[C@@H](CC(N)=O)C(=O)N[C@@H](CCCCN)C(=O)N[C@@H](CC(C)C)C(N)=O)C(C)C` [GVVDILKGAAKDIAGHLASKVMNKL], the MIC in [19] was ≥ 100 µM; in assay [20], ≥ 100 µM; in assay [21] it was ≥ 80 µM; in assay [22] it was 24.8 µM (≈ 63.3 µg/mL); in assay [23], > 100 µM; in [24] it was ≥ 160 µM. Moreover, the MIC in assay [25] is 80 µM and 100 µM; in assay [26], 20 µM (≈ 51 µg/mL); in assay [27], ≥ 100 µM; in assay [17] it was 110 µM (≈ 280 µg/mL); in assay [28] it was 100 µM (≈ 255 µg/mL).
In the case of `CC[C@H](C)[C@H](N)C(=O)N[C@@H](CCCCN)C(=O)N[C@@H](CC(C)C)C(=O)N[C@@H](CO)C(=O)N1CCC[C@H]1C(=O)N[C@@H](CCCCN)C(=O)N[C@H](C(=O)N[C@@H](CCCCN)C(=O)N[C@@H](CC(=O)O)C(=O)N[C@@H](CC(N)=O)C(=O)N[C@@H](CC(C)C)C(=O)N[C@@H](CCCCN)C(=O)N[C@@H](CCCCN)C(=O)N[C@H](C(=O)N[C@@H](CC(C)C)C(=O)N[C@@H](CCCCN)C(=O)NCC(=O)N[C@@H](C)C(=O)N[C@H](C(=O)N[C@@H](CCCCN)C(=O)NCC(=O)N[C@@H](C)C(=O)N[C@H](C(=O)N[C@@H](C)C(=O)N[C@H](C(=O)N[C@@H](C)C(=O)N[C@@H](CCCCN)C(=O)N[C@@H](CCSC)C(=O)N[C@H](C(N)=O)C(C)C)C(C)C)[C@@H](C)CC)[C@@H](C)CC)C(C)C)[C@@H](C)O` [IKLSPKTKDNLKKVLKGAIKGAIAVAKMV], the MIC in assay [29] was 1.6 µM (≈ 4.9 µg/mL); in [14], ≥ 100 µM; in assay [15], 6.25 µM (≈ 19.1 µg/mL); in assay [23], 3.1 µM (≈ 9.49 µg/mL); in assay [24], ≥ 100 µM; in [25], 12.5 µM (≈ 38.3 µg/mL). Further, the MIC against Acinetobacter baumannii turned out to be 6.25 µM (≈ 19.1 µg/mL); in assay [30], 0.8 µM (≈ 2.45 µg/mL); in assay [31], 0.8 µM (≈ 2.45 µg/mL); in assay [17] it was 1.6 µM (≈ 4.9 µg/mL); in assay [28], 6.25 µM (≈ 19.1 µg/mL).
